Experimental data reported in patent US8992603B2, “Coated devices and method of making coated devices that reduce smooth muscle cell proliferation and platelet activity” (Nanocopoeia, Inc., priority 2007, dated 2015).
Like-named read-outs stand apart in the source and are kept apart here.

Experiments:
platelet activation = experiment: thromboxane B2 levels in mouse carotid artery injury model; type: in vivo; details: 4 weeks oral, 50 mg/kg resveratrol, 10 mg/kg quercetin or both, B6.129 mice
Method: Plasma levels of thromboxane B2 (TBX2), a known marker for platelet activation, were assessed.

VSMC [1] = experiment: BrdU proliferation assay of VSMC with drug-eluting flats; type: cell-based; details: 48 hours elution
Method: Bare metal flats coated with resveratrol—(FIG. 17A) or quercetin—(FIG. 17B) containing arbIBS of either a closed or an open morphology were incubated in semi-permeable transwell inserts in plates containing VSMC. The bromodeoxyuridine (BrdU) incorporation assay for cell proliferation was conducted after 48 h of drug elution. […] The polyisobutylene-polystyrene triblock copolymers coated flats containing resveratrol or quercetin were incubated in semi-permeable transwell inserts in plates containing VSMC.

macrophages [2] = experiment: LPS-stimulated macrophage activation, nitric oxide release, isobologram; type: cell-based; details: CalcuSyn, read-out: IC50 macrophage activation, individual treatments
Method: Macrophages were incubated with differing dose ratios of resveratrol:quercetin and were stimulated with LPS. Activation was assessed as increases in nitric oxide release. The IC50's for each dose ratio were calculated using CaluSyn software and were used to plot the isobologram. The line depicted above indicates the point at which additive responses are observed (C1=1). Points lying above the line indicate antagonism, whereas points below the line represent synergism.
Isobolograms for the determination of synergistic dose ratios for a resveratrol/quercetin combination. To determine the dose ratios for achieving maximal synergistic effects, activation in LPS-stimulated cells macrophages incubated with constant dose ratios of resveratrol and quercetin was measured. The IC50 for each dose ratio was calculated using CalcuSyn software, and these concentrations were used to construct an isobologram (FIG. 13). […] Briefly, CI=1 denotes additive effects, CI>1 denotes antagonism, and CI<1 indicates synergism.

platelets = experiment: platelet activation, tritiated serotonin release after ADP; type: cell-based, human; details: 3 h, 5 μM ADP
Method: Values represent means+/−standard error.
To determine the efficacy of these compounds in reducing platelet activation, platelets isolated from healthy, male donors were incubated with resveratrol, quercetin, or resveratrol plus quercetin. The doses were selected based on prior studies.

[3] = system: mouse carotid artery injury model; experiment: mouse carotid artery injury model, neointimal area; type: in vivo; details: female B6.129 mice, high fat diet, oral 50 mg/kg resveratrol, 10 mg/kg quercetin or both, 2 weeks before and 2 weeks after injury
Method: FIG. 9 is a bar chart showing the effects of oral administration with 50 mg/kg resveratrol (RESV), 10 mg/kg quercetin (QUER), or resveratrol plus quercetin on neointimal areas in mice subjected to the carotid artery injury procedure. Values represent means+SEM. […] Neointimal area was determined by subtracting the luminal area from the area encircled by the internal elastic lamina. Determining whether quercetin potentiates the vascular protective effects of resveratrol in vivo, utilizing a mouse carotid artery injury model. Female B6.129 mice were administered a high fat diet, in some cases mixed together with 50 mg/kg resveratrol (RESV), 10 mg/kg quercetin (QUER), or resveratrol plus quercetin, for 2 weeks. The carotid artery injury procedure was conducted and the animals were fed the high fat diet plus polyphenols for an additional two weeks. The animals were then sacrificed, and the carotid arteries were excised and assessed for neointimal areas.

macrophages [4] = experiment: LPS-stimulated macrophage activation, iNOS protein; type: cell-based
Method: To test the efficacy of a resveratrol/quercetin combination in inhibiting the activation of macrophages, effects of polyphenol treatments either alone or in combination with quercetin were assessed in cultures of lipopolysaccharide (LPS) stimulated macrophages. Macrophage activation was determined by increases in protein levels of inducible nitric oxide synthase (iNOS) and by levels of reactive oxygen species (ROS).

[5] = cited from earlier work
VSMC [6] = experiment: VSMC proliferation (DNA synthesis, cell number); type: cell-based; details: Rattus norvegicus
NFκB = NFκB activation in vascular smooth muscle cells; type: cell-based
Text: FIG. 3 is a bar chart showing the effect of resveratrol on NFκB activation in vascular smooth muscle cells

[7] = resveratrol release from polymer-coated flats (HPLC); type: physicochemical
Method: Polymer coated flats were incubated in medium at 37° C. for 28 d. Resveratrol concentration in the medium was assessed at 2 d intervals using high performance liquid chromatography. The data are expressed as means+/−standard error for cumulative release in micromolar concentrations (FIG. 18A) compared to a percent of total drug loaded (FIG. 18B).
Determination of resveratrol release was performed using reversed phase high performance liquid chromatography (HPLC) coupled to a 4-channel Coularray electrochemical detector run at 590, 660, 730, and 800 mV. […] Establishing biocompatibility is a critical step in the development of the stent models.

ER-alpha = molecular target: T1, ER-alpha (Homo sapiens, UniProt P03372); details: same binding site as estradiol; cited from earlier work
T1 sequence (P03372 1-595): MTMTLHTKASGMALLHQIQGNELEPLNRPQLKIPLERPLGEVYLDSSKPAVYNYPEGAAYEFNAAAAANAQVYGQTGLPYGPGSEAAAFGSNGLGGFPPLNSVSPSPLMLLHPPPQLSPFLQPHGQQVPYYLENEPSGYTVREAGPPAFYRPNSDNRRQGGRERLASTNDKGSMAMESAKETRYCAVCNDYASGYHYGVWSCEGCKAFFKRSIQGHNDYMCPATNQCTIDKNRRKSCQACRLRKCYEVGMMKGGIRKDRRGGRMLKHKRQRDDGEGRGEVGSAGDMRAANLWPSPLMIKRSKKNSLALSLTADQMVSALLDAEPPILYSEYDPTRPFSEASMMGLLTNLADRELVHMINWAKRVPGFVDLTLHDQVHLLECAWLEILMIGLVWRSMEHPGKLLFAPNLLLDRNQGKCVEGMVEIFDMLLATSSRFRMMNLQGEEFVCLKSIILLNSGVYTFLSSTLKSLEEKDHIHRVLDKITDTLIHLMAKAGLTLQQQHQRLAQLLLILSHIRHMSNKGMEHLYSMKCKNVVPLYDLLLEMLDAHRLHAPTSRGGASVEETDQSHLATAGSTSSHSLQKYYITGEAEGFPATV

Row | IC50 (macrophages [2]) [nM] | total drug loaded that had eluted ([7]; at 28 days) | eluted concentration of resveratrol ([7]; medium 37° C., 28 d) | release from 100 mg/cm^2 coated flat relative to 50 mg/cm^2-coated flat ([7]; regardless of morphology, medium 37° C.) | SMILES | reduction of plasma TXB2 levels (platelet activation) | inhibition of VSMC proliferation (VSMC [1]; 75 μg/cm^2, particulate (open) or smooth (closed) matrix) | reduction of serotonin release (platelets; 10-15 μM quercetin) | neointimal area [3] | reduction of iNOS protein (macrophages [4]; 10 μM quercetin) [%] | reduction of iNOS protein (macrophages [4]; 15 μM quercetin) [%] | solubility in water [5] | inhibition of VSMC proliferation (VSMC [1]; smooth (closed) matrix, 100 μg/cm^2 loading) | reduction of serotonin release (platelets; 18 μM resveratrol) [%] | EC50 (VSMC [6]; read-out: EC50 for inhibiting DNA synthesis) [µM] | EC50 (VSMC [6]; read-out: EC50 for reducing numbers of cells) [µM] | inhibition of NFκB activation (NFκB) | reduction of iNOS protein levels (macrophages [4]; 18 μM resveratrol) [%] | binding affinity (ER-alpha)
1 | 2400 | – | – | – | O=c1c(O)c(-c2ccc(O)c(O)c2)oc2cc(O)cc(O)c12 [quercetin, 2-(3,4-dihydroxyphenyl)-3,5,7-trihydroxy-4H-1-benzopyran-4-one] | 40% | significantly inhibited proliferation | 40-50% | no significant effect | ~75 | ~90 | practically insoluble | – | – | – | – | – | – | –
2 | 3500 | 5-10% | low micromolar concentrations | approximately 4 fold | Oc1ccc(C=Cc2cc(O)cc(O)c2)cc1 [resveratrol] | no significant effect | – | – | dramatically reduced | – | – | – | significantly inhibited proliferation | ~60 | 18 | 25 | very potently | ~25 | lower binding affinity than estradiol
